Reference: patent US7470663B2, “Mixtures of insulin drug-oligomer conjugates comprising polyalkylene glycol, uses thereof, and methods of making same” (Biocon Limited, priority 2001, dated 2008)

Test system: normal fasted beagle dogs
Test: Activity and inter-subject variability: glucose lowering after oral liquid dosage formulation
Assay type: in vivo
Details: fasted beagles, 0.25 mg/kg oral liquid; compared with polydispersed PEG7AVG-hexyl-insulin, monoconjugate (FIG. 21)
Method: The inter-subject variability may be measured by various methods as will be understood by those skilled in the art. The inter-subject variability is preferably calculated as follows. The area under a dose response curve (AUC) (i.e., the area between the dose-response curve and a baseline value) is determined for each subject. The average AUC for all subjects is determined by summing the AUCs of each subject and dividing the sum by the number of subjects. The absolute value of the difference between the subject's AUC and the average AUC is then determined for each subject. The absolute values of the differences obtained are then summed to give a value that represents the inter-subject variability. Lower values represent lower inter-subject variabilities and higher values represent higher inter-subject variabilities.
An effective animal model for evaluating formulations uses normal fasted beagle dogs. These dogs are given 0.25 mg/kg of insulin conjugates to evaluate the efficacy of various formulations.
The protocol for dog experiments calls for a blood glucose measurement at time zero just before a drug is administered. The oral liquid dosage formulation is then squirted into the back of the dog's mouth. In each case, the dogs received 0.25 mg/kg of this solution. Blood is drawn at 15, 30, 60 and 120 minutes and glucose levels are measured and graphed. The lower the glucose levels, the better the activity of the insulin conjugate.

| Substance | activity (glucose lowering) | inter-subject variability |
| --- | --- | --- |
| PEG7-hexyl-insulin, monoconjugate: human insulin monoconjugated at the B29 position with the activated mPEG7-hexyl oligomer of Example 18; non-polydispersed mixture | higher activity | less inter-subject variability |
| PEG10-hexyl-insulin, monoconjugate: non-polydispersed mixture of mPEG10-hexyl-insulin, monoconjugates | higher activity | less inter-subject variability |
